# Assay results taken from patent US20120189673A1, “POLYPEPTIDES AND USES THEREOF” (priority 2009, published 2012).
# How the values were obtained:
# [1] = tested on: Escherichia coli, Pseudomonas aeruginosa, Bacillus subtilis, Staphylococcus aureus, Candida albicans, Candida parapsilosis; assay: Radial diffusion assay (RDA); assay type: cell-based; details: peptide at 100 μM, 6 μl per well; 18-24 h at 37° C.
# Procedure: Radial diffusion assay. Essentially as described earlier, bacteria were grown to mid-logarithmic phase in 10 ml of full-strength (3% w/v) trypticase soy broth (TSB) (Becton-Dickinson). The microorganisms were then washed once with 10 mM Tris, pH 7.4. Subsequently, 4×10^6 cfu were added to 15 ml of the underlay agarose gel, consisting of 0.03% (w/v) TSB, 1% (w/v) low electroendosmosis type (EEO) agarose (Sigma-Aldrich) and 0.02% (v/v) Tween 20 (Sigma-Aldrich). The underlay was poured into a Ø 144 mm petri dish. After agarose solidification, 4 mm-diameter wells were punched and 6 μl peptide solution of required concentration added to each well. Plates were incubated at 37° C. for 3 h to allow peptide diffusion. The underlay gel was then covered with 15 ml of molten overlay (6% TSB and 1% Low-EEO agarose in distilled H2O). Antimicrobial activity of a peptide was visualized as a zone of clearing around each well after 18-24 h of incubation at 37° C.
# Radial diffusion assay—Essentially as described earlier (23, 24), bacteria were grown to mid-logarithmic phase in 10 ml of full-strength (3% w/v) trypticase soy broth (TSB) (Becton-Dickinson). The microorganisms were then washed once with 10 mM Tris, pH 7.4. […]
# [2] = tested on: E. coli LPS shock in C57BL/6 mice; assay: LPS model in vivo (LPS-induced shock): survival, cytokines, lungs; design: species or system mouse; details: for overall (proinflammatory) cytokine release: 20 h after LPS injection, peptide 500 μg; for survival: E. coli LPS i.p., peptide 500 μg i.p. 30 minutes after, followed 7 days
# Procedure: Histochemistry—For immunostaining, wound biopsies were fixed in 10% formalin, rehydrated and embedded in paraffin. Sections of 5 μm thickness were placed on poly-lysine coated glass slides, deparaffinized in xylene and rehydrated in graded alcohols. The slides were then treated with Dako antigen retrieval solution (Dako) for 40 min at 97° C., and incubated for 24 h at room temperature in a 1:50 dilution of polyclonal antibodies against TFPI (Sigma-Aldrich, in TBS with 1% BSA, 5% goat serum, 0.05% Tween 20). After three 20 min washes in TBS with 0.05% Tween 20, the sections were incubated with alkaline phosphatase conjugated secondary goat anti-rabbit IgG (Dako) diluted 1:1000 in the same buffer as the primary antibody and incubated for another 24 hours, followed by three 20 min washes. Sections were developed with Vulcan Fast Red chromogen (Biocare Medical, Concord, Calif.) and the slides were counterstained with Harris Hematoxylin (EM Science, Gibbstown, N.J.). For histological evaluation of lungs derived from the in vivo LPS-models in mice, tissues were embedded as above, sectioned and stained with hematoxylin and eosin by routine procedures (Histocenter, Gothenburg, Sweden).
# LPS model in vivo—Male C57BL/6 mice (8-10 weeks, 22+/−5 g), were injected intraperitoneally with 18 mg E. coli 0111:B4 LPS (Sigma) per kg of body weight. Thirty minutes after LPS injection, 0.5 mg GGL27, GGL27(S), DSE25 or buffer alone was injected intraperitoneally into the mice. Survival and status was followed during seven days. For blood collection and histochemistry, mice were sacrificed 20 h after LPS challenge, and lungs were removed and fixed. These experiments were approved by the Laboratory Animal Ethics Committee of Malmo/Lund.
# Cytokine assay—The cytokines IL-6, IL-10, MCP-1, INF-γ, and TNF-α were measured in plasma from mice subjected to LPS (with or without peptide treatment) using the Cytometric bead array; mouse inflammation kit (Becton Dickinson AB) according to the manufacturer's instructions.
# [3] = tested on: RAW 264.7 macrophages; assay: NO production in RAW 264.7 macrophages stimulated with LPS or other microbial products (Griess reaction); assay type: cell-based, mouse; details: LPS from E. coli or P. aeruginosa; peptide at indicated concentrations (FIG. 41C)
# Procedure: Effects of various microbial products on macrophages in vitro and anti-inflammatory effects by various peptides of HCII and TFPI. 3.5×10^5 cells were seeded in 96-well tissue culture plates (Nunc, 167008) in phenol red-free DMEM (Gibco) supplemented with 10% FBS and antibiotics. Following 6 hours of incubation to permit adherence, cells were stimulated with 10 ng/mL E. coli (0111:B4) LPS (Sigma), lipoteichoic acid, peptioglycan, or zymosan, with and without peptides at the indicated doses (se figure legends and figures). The levels of NO in culture supernatants were determined after 24 hours from stimulation using the Griess reaction. Briefly, nitrite, a stable product of NO degradation, was measured by mixing 50 μl of culture supernatants with the same volume of Griess reagent (Sigma, G4410) and reading absorbance at 550 nm after 15 min. Phenol-red free DMEM with FBS and antibiotics were used as a blank. A standard curve was prepared using 0-80 μM sodium nitrite solutions in ddH20.
# LPS effects on macrophages in vitro—[…] cells were seeded in 96-well tissue culture plates (Nunc, 167008) in phenol red-free DMEM (Gibco) supplemented with 10% FBS containing 1% Anti-Anti (Invitrogen). Following 20 hours of incubation to permit adherence, cells were washed and stimulated with 10 ng/ml E. coli (0111:B4) or P. aeruginosa LPS (Sigma), with and without the peptides GGL27, GGL27(S), and DSE25 of various doses. The levels of NO in culture supernatants were determined after 24 hours from stimulation using the Griess reaction (27). Briefly, nitrite, a stable product of NO degradation, was measured by mixing 50 μl of culture supernatants with the same volume of Griess reagent (Sigma, G4410) and reading absorbance at 550 nm after 15 min. Phenol-red free DMEM with FBS and antibiotics were used as a blank. A standard curve was prepared using 0-80 μM sodium nitrite solutions in ddH20.
# [4] = tested on: thrombin induced fibrin network formation in normal human plasma; assay: Clotting assay: thrombin clotting time (TCT); assay type: biochemical
# Procedure: (§1) Clotting assays. All clotting times were measured using an Amelung coagulometer. Activated partial thromboplastin time (aPTT) was measured by incubating the peptides diluted in sterile water at the indicated concentrations, with 100 μL citrated human plasma for 1 minute followed by the addition of 100 μL aPTT reagent (aPTT Automate, Diagnostica Stago) for 60 seconds at 37° C. Clotting was initiated by the addition of 100 μL of a 25-mM CaCl2 solution. In the prothombrin time assay (PT), clotting was initiated by the addition of 100 μL Thrombomax with calcium (PT reagent; Sigma-Aldrich). For measuring the thrombin clotting time (TCT), clotting was initiated by the addition of 100 μL Accuclot thrombin time reagent (TCT reagent; Sigma-Aldrich).
# [5] = tested on: P. aeruginosa; assay: Viable count analysis, P. aeruginosa; assay type: cell-based, Pseudomonas aeruginosa; details: 20% human citrate plasma
# Procedure: (§2) Viable count analysis—E. coli strains were grown to mid-logarithmic phase in Todd-Hewitt (TH). P. aeruginosa strains were grown in TH overnight. Bacteria were washed and diluted in 10 mM Tris, pH 7.4 containing 5 mM glucose. 2×10^6 cfu/ml bacteria were incubated in 50 μl, at 37° C. for 2 h with the C-terminal TFPI-derived peptides GGL27, TKR22, or LIK17 at the indicated concentrations. Additional experiments were performed in 10 mM Tris, pH 7.4, containing 0.15 M NaCl, either alone or with 20% normal or heat inactivated citrate-plasma. Serial dilutions of the incubation mixture were plated on TH agar, followed by incubation at 37° C. overnight and cfu determination.
# [6] = tested on: E. coli; assay: Viable count analysis, E. coli; assay type: cell-based, Escherichia coli
# Procedure: Viable count analysis. E. coli ATCC 25922 bacteria were grown to mid-logarithmic phase in Todd-Hewitt (TH) medium. Bacteria were washed and diluted in 10 mM Tris, pH 7.4 containing 5 mM glucose. E. coli ATCC 25922 (50 μl; 2×10^6 cfu/ml) were incubated, at 37° C. for 2 h with peptides at the indicated concentrations. Other experiments with the TFPI-peptides and LL-37 were performed in 10 mM Tris, pH 7.4, containing also 0.15 M NaCl, with normal or heat inactivated 20% citrate-plasma (PP). Serial dilutions of the incubation mixture were plated on TH agar, followed by incubation at 37° C. overnight and cfu determination.
# as §2
# [7] = tested on: intrinsic pathway of coagulation in normal human plasma; assay: Clotting assay: activated partial thromboplastin time (aPTT); assay type: biochemical
# Procedure: as §1
# [8] = tested on: bacteria; details: cited from earlier work
# [9] = target: C3a (complement anaphylatoxin C3a peptides in chronic wound fibrin slough) (human) (UniProt P01024); assay: double immunogold electron microscopy (C3a 10 nm, C-termini of TFPI 20 nm), evaluation of 50 bacterial profiles in wound fibrin slough
# Sequence of C3a (complement anaphylatoxin C3a peptides in chronic wound fibrin slough) (human) (P01024 672-748): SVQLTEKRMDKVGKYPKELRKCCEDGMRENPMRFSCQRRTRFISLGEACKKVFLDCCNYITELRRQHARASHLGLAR
Substance,antimicrobial activity (zones of clearance) [1],overall (proinflammatory) cytokine release [2],survival [2],LPS-mediated NO release [3],antibacterial activity at physiological conditions [8],further results
"GGLISTSSSSSSQRVKIAYEEIFVKNM (GGL27(S) control peptide) [control peptide, central K/R residues of GGL27 replaced by S, reference compound]",no antimicrobial effects,nor significantly alter overall cytokine release,"nor significantly alter overall cytokine release, as well as survival",did neither block NO release,,
"TKRKRKKQRVKIAYEEIFVKNM [TKR22, C-terminal peptide of TFPI]",,,,,,"thrombin clotting time (TCT) [4]: not significantly affected; killing in human plasma compared with physiological buffer [5]: not enhanced; bactericidal activity in presence of human plasma ([6]; 0.15 M NaCl, 10 mM Tris, pH 7.4 with 20% human citrate plasma, versus buffer): significantly enhanced; bactericidal activity in heat-inactivated plasma ([6]; 20% heat-inactivated human citrate plasma): abolished the potentiation; activated partial thromboplastin time (aPTT) [7]: impair the intrinsic pathway of coagulation"
"DSEEDEEHTIITDTELPPLKLMHSF (DSE25 control peptide) [control peptide from the N-terminus of TFPI, reference compound]",no antimicrobial effects,nor significantly alter overall cytokine release,"nor significantly alter overall cytokine release, as well as survival",did neither block NO release,,
GKRKKKGKGLGKKRDPCLRKYK (Heparin-binding growth factor derived peptide) [GKR22],,,,,retain their antibacterial activity at physiological conditions,
C-terminal TFPI peptides (endogenous C-terminal fragments of tissue factor pathway inhibitor found in human chronic wound fibrin slough) (from UniProt P10646 268-304),,,,,,percent of TFPI-molecules associated with C3a [9]: 70%
HKHGHGHGKHKNKGKKNGKH (A kininogen-derived antimicrobial peptide) [HKH20],,,,,retain their antibacterial activity at physiological conditions,
